From US20170157102A1, “USE OF PERHEXILINE” (CONSIGLIO NAZIONALE DELLE RICERCHE, priority 2014, published 2017)
Read-outs that look alike come from different tables or passages of the source.

Key:
[1] = test system: S. mansoni juvenile worms; settings: at 8 days; previous report (Livia-Pica et al, 2004); cited from earlier work
S. mansoni worms = settings: juvenile 4 weeks after infection vs adult 6 or 7 weeks, mice (Pica-Mattoccia et al., 2004); cited from earlier work
[2] = test system: S. mansoni juvenile worms (4 weeks old); assay type: cell-based, Schistosoma mansoni; settings: 10 μM overnight, at 5 days
Protocol: FIG. 2. Juvenile worms (4 weeks old, S. mansoni) in vitro survival following overnight treatment with 10 μM PHX, 10 μM Gambogic Acid, 10 μM Praziquantel (PZQ) or DMSO (vehicle). Parasites death was assessed by optical examination each day using the following criteria: reduction of motility, tegumental damages and darker appearance. Data shown are the means of results of at least three experiments.
(§1) Seven-eight male worms or 4-5 worm pairs were recovered under aseptic conditions from infected mice by perfusion of mesenteric veins at 28 days (juvenile) or 56-days post infection (adult pairs) or 2-4 months post-infection (adult males). After washing, the worms were transferred into a 35 mm plates containing 3 mL of DMEM complete worms media and incubated at 37° C. in a humid atmosphere containing 5% CO2 with drugs overnight. Next, the worms were washed 3 times with drug-free medium and were incubated for 5 days at 37° C./5% CO2 and monitored daily under a stereo microscope for mobility, tegumental damage, viability and egg output (worm pairs). The experiment was repeated at least three times.
Juvenile worms (4 weeks old parasites) were also tested at the same conditions reported above. Following over night incubation of PHX (10 μM), viability of parasites was reduced by 80% after 5 days of observation (FIG. 2). […]

[3] = test system: S. mansoni newly transformed schistosomula; experiment: CellTiterGlo luminescent viability assay on schistosomula; settings: 24 h; for CC50: values of two independent experiments
Protocol: Cercariae, shed from infected snails, were subsequently converted to schistosomula by mechanical transformation using an optimised version of the protocol of Brink et al., 1977 previously described (Protasio et al. 2013). Briefly, the cercarial suspension (approximately 50.000 cercariae) was placed in a glass 40 ml tube on ice for 60 minutes in order to reduce parasite motility. Tail detachment was obtained by shaking cercariae vigorously for approximately 30 seconds in a vortex mixer before passing these through a 22G syringe needle approximately 10-12 times. Next, the separation of heads/schistosomula and tails was obtained by placing the heads plus tails suspension on 4-5 ml of ice-cold 70% Percoll in tube and centrifugating (600×g) for 10 minutes at 4° C. Finally, the schistomula preparations were washed twice (with DMEM complete media lacking FBS) and microscope examination was used to assess the quantity and quality of purified schistosomula (less than 1% tails). Schistosomula were cultured at 37° C. in 6 wells tissue culture plates containing 3 ml schistosomula complete media in an atmosphere of 5% CO2 for 24 hr before any further experimental manipulations proceeded. Negligible parasite death occurred in this media during the 24 hr culturing period. Following this, schistosomula were aliquoted into flat-bottom 384-well black-sided for compound assays.
Compounds are stored as solution of 100% DMSO at −20 ° C. under inert atmosphere. Intermediate storage microplates, in the 384 well/plate format, are prepared on demand and stored in the same controlled environment as the stock solutions. Intermediate microplate stored compounds are transferred to assay plates by the acoustic droplet ejection technology (ATS-100, EDC Biosystems USA) which ensures a safe, contactless, pre-dilution free delivery. The test set was transferred to 384 well, black, tissue culture treated destination plate. […]
The plate set was let to incubate with the compounds at 37° C./5% CO2 for 24 hours. […] The readout, luminescence based, was carried out by a CCD based detector (ViewLux, PerkinElmer USA). […]

S. mansoni adult worms = experiment: microbe, parasite or virus in culture; assay type: cell-based, Schistosoma mansoni
Protocol: FIG. 1. Adult worms (8 weeks old, S. mansoni) in vitro survival following overnight treatment with 10 μM PHX, 10 μM Gambogic Acid, 10 μM Praziquantel (PZQ) or DMSO (vehicle). Parasites death was assessed by optical examination each day using the following criteria: reduction of motility, tegumental damages and darker appearance. Data shown are the means of results of at least three experiments.
as §1
Male adult worms (7-8 worms/sample) obtained from infected mice were cultured at 37° C., 5% CO2 in DMEM complete medium (10% FBS) in presence of different concentrations of PHX (3-10 μM) and for variable time (12h to 5 days). For all experiments Gambogic Acid (1-10 μM) and PZQ (1-10 μM) were used as positive controls while DMSO was used as negative control. […] Parasites death was assessed by optical examination each day using the following criteria: reduction of motility, tegumental damages and darker appearance.

S. mansoni = experiment: In vivo efficacy in mice infected with S. mansoni (total worm count, hepatic egg burden); settings: two weeks after treatment
Protocol: FIG. 3. Effect of PHX on total worm count (A) and egg burdens (B) in mice infected with S. mansoni. One-way analysis of variance (one-way Anova) was used to compare means of the samples. The p-values are indicated. PZQ (Praziquantel, oral administration, 500 mg/kg), PERHEX LOW (PHX, oral administration, 23 mg/kg), PERHEX HIGH (PHX, oral administration, 70 mg/kg).
Female ICR (CD-1) outbred and C57BL/6, 4-7 weeks old mice (Harlan Laboratories) were housed under controlled conditions [(22±2)° C.; (65±15)% relative humidity; 12/12 h light/dark cycle]. The mice received standard food and water ad libitum. Female ICR (CD-1) outbred mice were infected transcutaneously with approximately 80 (for mixed infection) or 200 (single sex) S. mansoni cercariae for life cycle maintainance and in vitro worm assays. For in vivo experiments, C57BL/6 mice were infected with 140 cercariae and administered with selected compounds.
C57B/L6 inbred female mice (5-6 weeks old) were divided in 4 groups of 7 animals each and treated with DMSO (control), PZQ or two dosages of PHX. All compounds were administered orally (vehicle is 2.5% Cremophor EL) 42 days post infection. The amount of PHX administered (23 mg/kg and 70 mg/kg) was guided by available information of therapeutic dose in use for angina treatment (Ashrafian H., 2007); PZQ was used at the standard dose (500 mg/Kg). Toxicity of compounds (e.g., death and behavioral changes) was assessed daily during and after treatment until the time of euthanasia. At 56 days post infection, mice were euthanized with an intraperitoneal injection of Tiletamina/Zolazepam ([…])+Xylazina (100 mg/kg) and adult worms perfused as described above.
Compound efficacy in vivo, measured using a number of criteria, was compared to that of the anti-schistosomal drug, PZQ. The criteria include the numbers of male and female worms (total worm count) recovered by perfusion and hepatic egg burden (number of eggs in the liver). To recover eggs trapped in liver, whole livers from individual mice were excised, weighed and incubated in a 4% KOH solution over night at 37° C. Eggs were counted under a dissecting microscope as previously described (Cheever, A. W., 1968).
Based on the strong in vitro effects of PHX against larvae, juvenile (4 weeks old) and adult worms, the in vivo efficacy of the drug was tested in mice infected with S. mansoni. Based on the previous cardiovascular studies of the drug (Ashrafian H., 2007), two different concentrations of PHX were used: a low dose (23 mg/Kg) and a high dose (70 mg/Kg). […] Two weeks after the treatment, mice were sacrificed and the total worm count and egg burden (number of eggs in the liver) were determined (FIG. 3). […]

[4] = test system: adult parasites (schistosomes); settings: treatment of adult parasites (Redman et al.); cited from earlier work
[5] = test system: S. mansoni adult worm pairs; experiment: Egg production of adult worm pairs in vitro; assay type: cell-based, Schistosoma mansoni; settings: 5 μM overnight, vs DMSO control
Protocol: as §1
In order to test the effect of PHX on egg production, adult worm pairs were treated overnight using the sub lethal dose of 5 μM. Total number of eggs laid by female parasites was determined 3 and 6 days after the treatment. To do so, the medium containing the eggs was harvested and briefly centrifuged. The pellet containing the eggs was re-suspended in 500 μl of saline solution and the egg number was determined by microscopy analysis.

[6] = cited from earlier work
[7] = HIGH dose 70 mg/Kg oral single dose
[8] = LOW dose 23 mg/Kg oral single dose

For O=C(C1CCCCC1)N1CC(=O)N2CCc3ccccc3C2C1 (stereo not shown) [Praziquantel], the “survival of juvenile worms” value [1] is given as “approximately 80%”, the “ED50 against juvenile worms relative to adult worms” value (S. mansoni worms) is given as “at least 30 times” and the “survival rate of juvenile worms” value [2] is given as 50%.

For C1CCC(C(CC2CCCCN2)C2CCCCC2)CC1 (stereo not shown) [Perhexiline, 2-(2,2-dicyclohexylethyl)piperidine], the CC50 ([3]; Schistosoma mansoni, read-out: CC50 of newly transformed schistosomula, 24 h, 0.019-50 μM, four parameter fit) was 9.56 µM, the CC50 ([3]; read-out: CC50 of newly transformed schistosomula, 0.019-50 μM, four parameter fit) was 12.4 µM and the “cytotoxicity in the initial screen” value ([3]; single concentration 10 μM, threshold 70% cytotoxicity, scaled DMSO 0% / gambogic acid 100%) was “positive compound”. For the same molecule, the “effect on viability of adult worms” value (S. mansoni adult worms; 3 μM) was “no effect”, the inhibition at 5 µM (S. mansoni adult worms; Schistosoma mansoni, read-out: reduced viability of adult worms) was about 50% and the “viability of adult parasites” value (S. mansoni adult worms; overnight incubation 10 μM, after 5 days) was “statistically significant decreased viability”. The “decrease in total worm counts” value (S. mansoni; [7]) was 63%, the “reduction of egg burden (number of eggs in the liver)” value (S. mansoni; [7]) was 60% and the “decrease in total worm counts” value (S. mansoni; [8]) was 35%. For the same molecule, the “reduction of egg burden (number of eggs in the liver)” value (S. mansoni; [8]) was 50%, the “rate of BODIPY FL C5-sphyngomyelin breakdown” value [4] was “no decrease” and the “reduction in egg production” value ([5]; 3 days after treatment) was “around 60%”. For the same molecule, the “reduction in egg production” value ([5]; 6 days after treatment) was “around 60%”, the “inter-individual differences in apparent oral clearance” value ([6]; CYP2D6 polymorphisms) was “approximately 100 fold” and the plasma half-life ([6]; most subjects) was 24 to 48 h. The plasma half-life ([6]; poor metabolizers (CYP2D6)) was “up to 40 days” and the “defined therapeutic range of plasma concentration” value ([6]; range that avoids hepatotoxicity and peripheral neuropathy (Horowitz et al 1986)) was 0.15-0.6 mg 1^−1.

For CNCCCN1c2ccccc2CCc2ccccc21 [desipramine], the “rate of BODIPY FL C5-sphyngomyelin breakdown” value [4] is given as “no decrease”.

For Cl.N [NH4Cl], the “rate of BODIPY FL C5-sphyngomyelin breakdown” value [4] is given as “no decrease”.
